Results as given in US11813306B2, “Cyclic tetramer compounds as proprotein convertase subtilisin/kexin type 9 (PCSK9) inhibitors for the treatment of metabolic disorders” (NOVARTIS AG, priority 2018, dated 2023).

Biological target: human PCSK9 (Homo sapiens, UniProt Q8NBP7)
Assay: PCSK9 ligand binding assay (TR-FRET): interference with binding of human PCSK9 to human LDLR
Settings: for IC50: Human PCSK9 Alexa Fluor 647 / Human LDLR extracellular domain-Europium Kryptate; for Max % inhibition: efficacy (Amax), 100% = 1 uM unlabeled human PCSK9, 0% = DMSO
How it was run: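 Read-out was TR-FRET ratio (665 nm over 615 nm, 330 nm excitation) between Alexa Fluor 647-human PCSK9 (16 nM added) and Europium Kryptate-human LDLR ectodomain (4 nM added). Compound and PCSK9 were mixed 30 min before LDLR, then incubated 2 h. Inhibition was normalised to DMSO and unlabelled-PCSK9 controls, giving IC50 and Amax.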

human PCSK9, sequence (Q8NBP7 153-692): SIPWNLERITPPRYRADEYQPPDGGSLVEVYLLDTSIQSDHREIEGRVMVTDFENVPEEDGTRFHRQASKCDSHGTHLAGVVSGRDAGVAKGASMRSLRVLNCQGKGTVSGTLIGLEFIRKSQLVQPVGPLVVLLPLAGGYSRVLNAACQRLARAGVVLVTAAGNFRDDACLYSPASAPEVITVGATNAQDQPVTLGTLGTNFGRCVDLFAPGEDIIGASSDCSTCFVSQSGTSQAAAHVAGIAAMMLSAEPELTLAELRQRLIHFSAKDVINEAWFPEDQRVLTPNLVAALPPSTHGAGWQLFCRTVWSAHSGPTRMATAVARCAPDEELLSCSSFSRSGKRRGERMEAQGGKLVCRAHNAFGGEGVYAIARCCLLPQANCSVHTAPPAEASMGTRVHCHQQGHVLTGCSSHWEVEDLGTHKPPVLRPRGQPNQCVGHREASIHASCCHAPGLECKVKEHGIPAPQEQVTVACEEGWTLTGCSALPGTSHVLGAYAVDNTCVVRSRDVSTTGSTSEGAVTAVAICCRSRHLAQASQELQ
human PCSK9, sequence (Q8NBP7 31-152 partner limits assumed): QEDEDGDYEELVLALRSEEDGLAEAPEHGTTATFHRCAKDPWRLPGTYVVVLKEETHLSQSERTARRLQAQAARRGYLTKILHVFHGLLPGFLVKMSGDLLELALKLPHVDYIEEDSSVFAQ

Structure (SMILES)	IC50	Max % inhibition
C[C@H]1C(=O)N[C@@H](CO)C(=O)N[C@@]2(Cc3ccc(Cl)cc3)CCCN(C2)C(=O)[C@H](Cc2cccc(C(F)(F)F)c2)CC(=O)N1Cc1c(F)cc(Cl)cc1Oc1ccc(-c2cnc(CN(C)C)n2C)cc1 [Compound 80, (3R, 7S, 10S, 13R)-6-(4-chloro-2-(4-(2-((dimethylamino)methyl)-1-methyl-1H-imidazol-5-yl)phenoxy)-6-fluorobenzyl)-13-(4-chlorobenzyl)-10-(hydroxymethyl)-7-methyl-3-(3-(trifluoromethyl)benzyl)-1,6,9,12-tetraazabicyclo[11.3.1]heptadecane-2,5,8,11-tetraone]	0.624 nM	106.6%
C[C@H]1C(=O)N[C@@H](CO)C(=O)N[C@@]2(Cc3ccc(Cl)cc3)CCCN(C2)C(=O)[C@H](CC2CC2)CC(=O)N1Cc1c(F)cc(Cl)cc1Oc1ccc(-c2cnc(CN(C)C)n2C)cc1 [Compound 145, (3R, 7S, 10S, 13R)-6-(4-chloro-2-(4-(2-((dimethylamino)methyl)-1-methyl-1H-imidazol-5-yl)phenoxy)-6-fluorobenzyl)-13-(4-chlorobenzyl)-3-(cyclopropylmethyl)-10-(hydroxymethyl)-7-methyl-1,6,9,12-tetraazabicyclo[11.3.1]heptadecane-2,5,8,11-tetraone]	0.95 nM	112.3%
COC[C@@H]1NC(=O)[C@H](C)N(Cc2ccc(Cl)cc2Oc2ccc(-c3cnc(CN(C)C)n3C)cc2)C(=O)C[C@@H](Cc2ncco2)C(=O)N2CCC[C@@](Cc3ccc(Cl)cc3)(C2)NC1=O [Compound 35, (3R, 7S, 10S, 13R)-6-(4-chloro-2-(4-(2-((dimethylamino)methyl)-1-methyl-1H-imidazol-5-yl)phenoxy)benzyl)-13-(4-chlorobenzyl)-10-(methoxymethyl)-7-methyl-3-(oxazol-2-ylmethyl)-1,6,9,12-tetraazabicyclo[11.3.1]heptadecane-2,5,8,11-tetraone]	0.914 nM	105.0%
COC[C@@H]1NC(=O)[C@H](C)N(Cc2c(F)cc(Cl)cc2Oc2ccc(-c3cnc(CN)n3C)cc2)C(=O)C[C@@H](C2CC(F)(F)C2)C(=O)N2CCC[C@@](Cc3ccc(Cl)cc3)(C2)N(C)C1=O [Compound 166, (3S, 7S, 10S, 13R)-6-(2-(4-(2-(aminomethyl)-1-methyl-1H-imidazol-5-yl)phenoxy)-4-chloro-6-fluorobenzyl)-13-(4-chlorobenzyl)-3-(3,3-difluorocyclobutyl)-10-(methoxymethyl)-7,12-dimethyl-1,6,9,12-tetraazabicyclo[11.3.1]heptadecane-2,5,8,11-tetraone]	0.74 nM	98.1%

Second part, the compound after the results:

IC50	Max % inhibition	Structure (SMILES)
1.37 nM	107.7%	COC[C@@H]1NC(=O)[C@H](C)N(Cc2c(F)cc(Cl)cc2Oc2ccc(-c3cnc(CN(C)C)n3C)nc2)C(=O)C[C@@H](CC(F)(F)F)C(=O)N2CCC[C@@](Cc3ccc(Cl)cc3)(C2)N(C)C1=O [Compound 173]
0.277 nM	115.7%	COC[C@@H]1NC(=O)[C@H](C)N(Cc2ccc(Cl)cc2Oc2ccc(-c3cnc(CN(C)C)n3C)nc2)C(=O)C[C@@H](Cc2cccc(C)n2)C(=O)N2CCC[C@@](Cc3ccc(Cl)cc3)(C2)N(C)C1=O [Compound 24, (3R, 7S, 10S, 13R)-6-(4-chloro-2-((6-(2-((dimethylamino)methyl)-1-methyl-1H-imidazol-5-yl)pyridin-3-yl)oxy)benzyl)-13-(4-chlorobenzyl)-10-(methoxymethyl)-7,12-dimethyl-3-((6-methylpyridin-2-yl)methyl)-1,6,9,12-tetraazabicyclo[11.3.1]heptadecane-2,5,8,11-tetraone]
